Like-named read-outs stand apart in the source and are kept apart here.
Assays:
CCR3 [1] = molecular target: T1, CCR3 (Homo sapiens, UniProt P51677); conditions: assay not stated; from the cited reference; cited from earlier work
T1 sequence (P51677 1-355): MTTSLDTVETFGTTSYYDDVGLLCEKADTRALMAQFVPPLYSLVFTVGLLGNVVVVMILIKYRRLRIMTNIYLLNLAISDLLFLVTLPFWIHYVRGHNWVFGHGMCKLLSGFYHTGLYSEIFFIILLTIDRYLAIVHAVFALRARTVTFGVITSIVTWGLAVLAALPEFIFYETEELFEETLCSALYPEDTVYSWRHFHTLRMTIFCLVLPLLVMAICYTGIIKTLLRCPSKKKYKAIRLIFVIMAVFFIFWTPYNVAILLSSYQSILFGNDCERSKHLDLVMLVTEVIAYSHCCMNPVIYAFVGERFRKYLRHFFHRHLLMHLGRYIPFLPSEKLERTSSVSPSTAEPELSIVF

CCR3 [2] = molecular target: T1, CCR3; conditions: from the cited reference; read-out: IC50 (Calcium influx); cited from earlier work
[3] = tested on: choroidal neovascularization (CNV) secondary to wAMD; assay: clinical cases, naïve subject eyes: oral Compound 1 followed by IVT anti-VEGF; format: in vivo, human
Method: Newly diagnosed subjects with choroidal neovascularization (CNV) secondary to wAMD were administered 400 mg of Compound 1 CCR antagonist orally twice per day (BID) for a total dose of 800 mg per day. The clinical trial treatment regimen included 6 weeks of Compound 1 followed by 4 weeks of safety follow up (weeks 7 and 8 as in office visits and follow up by phone at week 10) with no additional Compound 1 treatment. Subject treatment visits took place once per week where mean changes in BCVA as measured by ETDRS were noted, slit lamp and SD-OCT performed, and intraocular pressure taken. Subjects then returned to routine treatment with their physician post clinical trial and were treated or re-treated with α-VEGF agents per physician judgment guided by standard criteria such as new CNV activity on OCT/angio-OCT (aOCT) or increased foveal subretinal fluid (SRF)/intra-retinal fluid (IRF). Different α-VEGF agents (described in FIGS. 1-3, 6-8, 11-13, and 16-18, 21 and Tables A-C and E-G) were administered by intra-vitreal injection. For aflibercept, 2 mg in 0.05 mL was given per single intravitreal injection. For bevacizumab, 1.25 mg in 0.05 mL was given per single intravitreal injection. For ranibizumab, 0.5 mg in 0.05 mL was given per single intravitreal injection. All OCT tests were performed using REVO NX (Optopol Technology, Poland). A 3-dimensional (3D) scanning protocol covering a 7×7 mm area was used (1024 A-scans×64 tomograms). The central retinal thickness (CRT) was measured automatically (software version 9.6). The detection of the fovea and the accuracy of layers segmentation was checked by the operator. If necessary, the fovea location and the outer retinal boundaries were corrected manually by moving the pointer to the desired position. In such cases, the central macular thickness value was recalculated. Subretinal and intraretinal fluid presence was assessed manually. SRF was defined as a hyporeflective space between retinal pigment epithelium and the sensory retina, whereas IRF as ovoid or round spaces within the retina, with a low reflectivity content. SRF and IRF was distinguished from the outer retinal tubulations (ORTs) and degenerative IRF. The latter were not recognized as a CNV activity sign. CNV activity signs such as neovascular vasculature seen on OCT angiography were monitored. Additionally, lipid exudates and enlargement of RPE elevation were noted.

neovascular (wet) AMD = conditions: cited from earlier work; for patients with persistent presence of fluid at the retina (OCT or angiography): IVT, after two years of monthly injections
CCR3 [4] = molecular target: T1, CCR3; conditions: from the cited reference; read-out: IC50 (binding); cited from earlier work
CCR3 [5] = molecular target: T1, CCR3; conditions: from the cited reference; read-out: IC50 (chemotaxis); cited from earlier work
[6] = tested on: refractory wet Age-Related Macular Degeneration (wAMD); assay: clinical case, refractory subject eyes: oral Compound 1 followed by IVT anti-VEGF; format: in vivo, human; conditions: Compound 1 regimen followed by IVT anti-VEGF, summary
Method: Subjects with refractory wet Age-Related Macular Degeneration (wAMD) were administered 400 mg of Compound 1 CCR antagonist orally twice per day (BID) for a total dose of 800 mg per day. The treatment regimen of Compound 1 lasted 6-weeks. Refractory subjects for this 6-week regimen were described as having persistent subretinal fluid, intraretinal fluid, and absence of improvement in visual acuity after at least 3 consecutive (approximately 4-6 weeks apart) IVT anti-VEGF injections. After the end of a clinical trial consisting of 6-weeks of Compound 1 CCR antagonist treatment, and four weeks of clinical trial follow up with no additional treatment, a subject with heavily pre-treated bilateral disease entered back into normal treatment with their physician and was treated or re-treated with α-VEGF agents per physician judgment guided by standard criteria such as new CNV activity on OCT/angiography OCT (angio-OCT or aOCT) or foveal subretinal fluid (SRF)/intra-retinal fluid (IRF) or PED. Different α-VEGF agents (described in FIGS. 4-5, 9-10, 14-15, 19-21 and Tables D and H) were administered by intra-vitreal injection. […] The central retinal thickness (CRT) was measured automatically (software version 9.6). […] Subretinal and intraretinal fluid presence was assessed manually. […] CNV activity signs such as neovascular vasculature seen on OCT angiography were monitored. […]

[7] = tested on: human eotaxin-1 induced eosinophil shape change; conditions: human whole blood; read-out: IC50, antagonism of human eotaxin-1 induced eosinophil shape change; cited from earlier work
[8] = Patient Case 3, after 6 weeks oral Compound 1, once ranibizumab, subsequently bevacizumab

In the case of O=C(Nc1ccccc1[N+](=O)[O-])[C@@H]1CCCN1CNC1CC2CCC(C1)N2Cc1ccc2cc(F)ccc2c1 (stereo partly drawn), the IC50 (CCR3 [1]) is listed as 4.9 nM.

In the case of Cc1ccc(C(=O)N2CCC(=CC(=O)N[C@@H]3CCN(Cc4ccc5cc(F)ccc5c4)C3)CC2)nn1, the IC50 (CCR3 [2]) is listed as 6.2 nM.

In the case of bevacizumab, the “average anti-VEGF doses required per year” value ([3]; Patient Case 1, after 6 weeks oral Compound 1) is listed as 0.667 dose per year, the “average anti-VEGF doses required per year” value [3, 8] is listed as 1.23 dose per year and the “patients with persistent presence of fluid at the retina (OCT or angiography)” value (neovascular (wet) AMD) is listed as 67.4%.

In the case of O=C(NCC1CCCN(C2CCN(Cc3ccc(Cl)c(Cl)c3)CC2)C1)c1cccc2cccnc12 (stereo not drawn), the IC50 (CCR3 [1]) is listed as 30 nM.

In the case of NC(=O)c1ccc(CNC(=O)NCC2CN(Cc3ccc(Cl)c(Cl)c3)CCO2)cc1 (stereo not drawn), the IC50 (CCR3 [1]) is listed as 10 nM.

For CN1CCC(c2ccccc2)[C@@H]1COc1cccnc1 (stereo partly drawn), the IC50 (CCR3 [1]) is listed as 195 nM.

In the case of CC(=O)Nc1ccc2nc(SCC(=O)NC3CCN(Cc4ccc(Cl)c(Cl)c4)CC3)sc2c1, the IC50 (CCR3 [1]) is given as 1.5 nM.

In the case of Cc1ccc[n+]([O-])c1C(=O)N1CCC(=CC(=O)N[C@@H]2CCN(Cc3ccc4cc(F)ccc4c3)C2)CC1, the IC50 (CCR3 [4]) is listed as 3 nM, the IC50 (CCR3 [2]) is listed as 5.4 nM and the IC50 (CCR3 [5]) is listed as 19.9 nM.

For Cc1ccc(C(=O)N[C@@H](Cc2ccc(Cl)cc2)C(=O)N[C@@H](C)C(=O)Nc2ccc(Cl)cc2)c(C)c1, the IC50 (CCR3 [1]) is given as 3.5 nM.

For CC1=C(CC(CCc2ccc([N+](=O)[O-])cc2)C2CCN(C(=O)c3ccncc3)CC2)C(=O)N(c2ccc(F)cc2)C1C (stereo not drawn), the IC50 (CCR3 [1]) is listed as 12 nM.

In the case of Cc1cc(C(=O)N(C)C)cc(NC(=O)[C@H]2CCC(=O)N2C2CCN(Cc3ccc(Cl)c(C)c3)CC2)n1 [Compound 1], the CRT [6] is listed as “stabilized”, the “Central retinal pigmental epithelium detachment height” value [6] is listed as “reduced” and the IC50 [7] is listed as 42.5 ± 43.5 nM.

For C[C@@H](NC(=O)Nc1cccc(-c2nnnn2C)c1)C(O)CN1CCC[C@@H](Cc2ccc(F)cc2)C1 (stereo partly drawn), the IC50 (CCR3 [4]) is given as 0.3 nM and the IC50 (CCR3 [5]) is given as 0.038 nM.

For aflibercept, the “average anti-VEGF doses required per year” value ([3]; Patient Case 2, after 6 weeks oral Compound 1) was 2.36 doses per year.

In the case of CCCN1CCC(Cc2ccc(F)cc2)C[C@@H]1CCCNC(=O)Nc1cccc(C(C)=O)c1 (stereo partly drawn), the IC50 (CCR3 [4]) is listed as 2 nM, the IC50 (CCR3 [2]) is listed as 26 nM and the IC50 (CCR3 [5]) is listed as 19 nM.

B1: ranibizumab (antibody, chains of the INN, looked up, V domains shown)
VH: EVQLVESGGGLVQPGGSLRLSCAASGYDFTHYGMNWVRQAPGKGLEWVGWINTYTGEPTYAADFKRRFTFSLDTSKSTAYLQMNSLRAEDTAVYYCAKYPYYYGTSHWYFDVWGQGTLVTVSS
VL: DIQLTQSPSSLSASVGDRVTITCSASQDISNYLNWYQQKPGKAPKVLIYFTSSLHSGVPSRFSGSGSGTDFTLTISSLQPEDFATYYCQQYSTVPWTFGQGTKVEIK
modifications: Fab
notes: anti-VEGF antibody, intravitreal injection
In the case of B1, the “average anti-VEGF doses required per year” value [3, 8] is listed as 1.23 dose per year, the “patients with persistent presence of fluid at the retina (OCT or angiography)” value (neovascular (wet) AMD) is listed as 51.5% and the “additional average letter gain with monthly dosing versus less frequent dosing” value (neovascular (wet) AMD; nine months after 3 initial monthly doses, FDA label) is listed as 1-2 letter. For the same molecule, the “loss of visual acuity benefit, dosing every 3 months compared with continued monthly dosing” value (neovascular (wet) AMD; over the next 9 months after 4 monthly doses, FDA label) was about 5 letter.

Reference: patent publication US12692301B2, “Methods of improving retina-associated disease outcome using CCR3-inhibitors” (ALKAHEST INC., priority 2020, dated 2026)
